Reference: ChEMBL document CHEMBL3259560, “Synthesis of xanthone derivatives based on α-mangostin and their biological evaluation for anti-cancer agents” (Bioorg Med Chem Lett, 2014)
Converted amounts (≈) assume the structure as drawn.

Key:
SW-620 = experiment: Cytotoxicity against human SW620 cells assessed as inhibition of cell proliferation after 48 hrs by XTT assay; format: functional, cell-based; details: SW-620, 48 h
ASPC1 = experiment: Cytotoxicity against human AsPC1 cells assessed as inhibition of cell proliferation after 48 hrs by XTT assay; format: functional, cell-based; details: ASPC1, 48 h
MDA-MB-231 = experiment: Cytotoxicity against human MDA-MB-231 cells assessed as inhibition of cell proliferation after 48 hrs by XTT assay; format: functional, cell-based; details: MDA-MB-231, 48 h
[1] = Kinetic solubility of the compound in water containing 5% DMSO at pH 6.8; format: physicochemical; details: read-out: Kinetic_solubility
NCI-H460 = experiment: Cytotoxicity against human NCI-H460 cells assessed as inhibition of cell proliferation after 48 hrs by XTT assay; format: functional, cell-based; details: NCI-H460, 48 h
[2] = Cytotoxicity against mouse B16F10 cells assessed as inhibition of cell proliferation after 48 hrs by XTT assay; format: functional, cell-based; details: B16-F10, 48 h

Compound | IC50 (SW-620) [µM] | IC50 (ASPC1; read-out: IC50) [µM] | IC50 (MDA-MB-231) [µM] | solubility kinetic [1] [µM] | IC50 (NCI-H460) [µM] | IC50 [2] [µM] | IC50 (ASPC1) [µM]
CC(C)=CCc1c(O)cc2oc3cc(O)c(O)c(CC=C(C)C)c3c(=O)c2c1O | 5.69 | 5.92 | 5.87 | 94 (≈ 37.3 µg/mL) | 4.48 |  | 
COc1c(OC(C)=O)cc2oc3cc(O)c(CC=C(C)C)c(O)c3c(=O)c2c1CC=C(C)C | 10.9 | 13.9 | 12.9 | 148 (≈ 67 µg/mL) | 12.6 | 13.1 | 
COc1c(OCC(=O)O)cc2oc3cc(O)c(CC=C(C)C)c(O)c3c(=O)c2c1CC=C(C)C | 46.6 | 52.8 | > 100 |  | 54.6 | 28.6 | 
COc1c(OCC(=O)O)cc2oc3cc(OCC(=O)O)c(CC=C(C)C)c(O)c3c(=O)c2c1CC=C(C)C | > 100 | > 100 | > 100 |  | > 100 | 95.8 | 
C=CCOc1cc2oc3cc(O)c(CC=C(C)C)c(O)c3c(=O)c2c(CC=C(C)C)c1OC | 12.1 | 21.3 | 17.9 | 149 (≈ 67.1 µg/mL) | 12.2 | 16.5 | 
COc1c(OS(=O)(=O)C(F)(F)F)cc2oc3cc(OS(=O)(=O)C(F)(F)F)c(CC=C(C)C)c(O)c3c(=O)c2c1CC=C(C)C | 9.01 | 13.8 | 16.9 |  | 22.4 | 15.3 | 
C=CCOc1cc2oc3cc(OC)c(CC=C(C)C)c(O)c3c(=O)c2c(CC=C(C)C)c1OC | > 100 | > 100 | > 100 |  | > 100 | > 100 | 
C=CCOc1cc2oc3cc(OCC=C)c(OC)c(CC=C(C)C)c3c(=O)c2c(OC)c1CC=C(C)C | 44.6 | 25.8 | 28 |  | 14.6 | 41 | 
COc1c(O)cc2oc3cc(O)c(CC=C(C)C)c(OC)c3c(=O)c2c1CC=C(C)C | 18.2 | 13.9 | 20.8 | 104 (≈ 44.1 µg/mL) | 10.8 | 16.6 | 
COc1ccc2oc3cc(O)c(CCC(C)C)c(O)c3c(=O)c2c1CCC(C)C | > 100 | > 100 | > 100 |  | > 100 | > 100 | 
COc1ccc2oc3ccc(CCC(C)C)c(O)c3c(=O)c2c1CCC(C)C | > 100 | > 100 | > 100 |  | > 100 | > 100 | 
COc1c(N)cc2oc3ccc(CCC(C)C)c(O)c3c(=O)c2c1CCC(C)C | 15.9 | 31.3 | 30.9 | 138 (≈ 54.9 µg/mL) | 17.6 | 14.4 | 
COc1c(O)cc2oc3cc(O)c(CCC(C)C)c(O)c3c(=O)c2c1CCC(C)C | 6.42 | 4.64 | 4.91 | 78 (≈ 32.3 µg/mL) | 4.17 | 6.54 | 
COc1c(O)cc2oc3c([N+](=O)[O-])c(O)c(CCC(C)C)c(O)c3c(=O)c2c1CCC(C)C | 22.6 | 31.8 | 29 | 339 (≈ 156 µg/mL) | 16.8 |  | 
COc1c(O)cc2oc3c(N)c(O)c(CCC(C)C)c(O)c3c(=O)c2c1CCC(C)C | 6.24 | 13 | 17.6 |  | 15.1 | 12.3 | 
COc1c(O)cc2oc3c(Cl)c(O)c(CCC(C)C)c(O)c3c(=O)c2c1CCC(C)C | 9.59 | 19.3 | 10.1 | 381 (≈ 171 µg/mL) | 9.96 | 12.4 | 
C#CCOc1c(O)cc2oc3cc(O)c(CC=C(C)C)c(O)c3c(=O)c2c1CC=C(C)C | > 100 | > 100 | > 100 |  | > 100 |  | 
CC(C)=CCc1c(O)cc2oc3cc(O)c(OCc4cn(CC(=O)OC(C)(C)C)nn4)c(CC=C(C)C)c3c(=O)c2c1O | > 100 | > 100 | > 100 |  | > 100 |  | 
C=CCOc1cc2oc3cc(OCC=C)c(OC)c(CC=C(C)C)c3c(=O)c2c(O)c1CC=C(C)C | > 100 | > 100 | > 100 |  | > 100 | > 100 | 
COc1c(O)cc2oc3cc4c(c(O)c3c(=O)c2c1CC=C(C)C)CCC(C)(C)O4 | > 100 | > 100 | > 100 |  | > 100 | > 100 | 
COc1c(OC(C)=O)cc2oc3cc(OC(C)=O)c(CC=C(C)C)c(O)c3c(=O)c2c1CC=C(C)C | 22.7 | 14.2 | 17.4 | 122 (≈ 60.3 µg/mL) | 12.5 | 15.1 | 
COc1cccc2c1C(=O)c1c(O)c3c(c(O)c1C2=O)C[C@@](O)(C(=O)CO)C[C@@H]3O[C@H]1C[C@H](N)[C@H](O)[C@H](C)O1 [DOXORUBICIN] | 0.12 |  | 0.98 |  | 0.08 | 0.12 | 1.87
COc1c(O)cc2oc3cc4c(c(O)c3c(=O)c2c1CC=C(C)C)C=CC(C)(C)O4 [MANGOSTANIN] | 26.1 | 25.5 | 21.1 |  | 19.7 | 26.2 | 
COc1c(O)cc2oc3cc(O)c(CC=C(C)C)c(O)c3c(=O)c2c1CC=C(C)C [MANGOSTIN] | 2.97 | 4.02 | 3.04 | 20 (≈ 8.21 µg/mL) | 3.23 | 3.23 | 
